In ChEMBL document CHEMBL3352501, “SAR analysis of new anti-TB drugs currently in pre-clinical and clinical development” (Eur J Med Chem, 2014):
Values after ≈ are worked out from the molar mass of the structure shown.

Legend:
[1] = test system: Mycobacterium tuberculosis; assay: Antitubercular activity against drug-resistant Mycobacterium tuberculosis clinical isolates assessed as growth inhibition; assay type: functional
[2] = test system: Mycobacterium tuberculosis; assay: Antitubercular activity against multidrug-resistant Mycobacterium tuberculosis clinical isolates assessed as growth inhibition; assay type: functional

Row | Compound | MIC [1] [µg/mL] | MIC90 [2] [nM]
1 | CC(C)=CCC/C(C)=C/CNCCNC1C2CC3CC(C2)CC1C3 (stereo not given) [SQ109] | 0.2 (≈ 0.605 µM) | 
2 | COc1nc2ccc(Br)cc2cc1[C@@H](c1ccccc1)[C@@](O)(CCN(C)C)c1cccc2ccccc12 [BEDAQUILINE] | 0.002 (≈ 0.0036 µM) | 
3 | CC(C)/N=c1\cc2n(-c3ccc(Cl)cc3)c3ccccc3nc-2cc1Nc1ccc(Cl)cc1 [CLOFAZIMINE] | 0.108 (≈ 0.228 µM) | 
4 | COc1ncccc1Nc1cc2nc3ccccc3n(-c3ccc(OC(F)(F)F)cc3)c-2c/c1=N\C1CCC(OC)CC1 (stereo not given) | 0.027 (≈ 0.0458 µM) | 
5 | CCc1nc2ccc(Cl)cn2c1C(=O)NCc1ccc(N2CCC(c3ccc(OC(F)(F)F)cc3)CC2)cc1 [TELACEBEC] |  | < 0.43
